The results in this text go back to US20100247461A1, “ANTI-INFLAMMATORY COMPLEXES” (Signum Biosciences, Inc., priority 2009, published 2010).

The structures appear in SMILES notation.

What all share (assay type): in vivo
Data set [1] deals with TPA-treated mouse ears (erythema, Δa* redness). Briefly: TPA mouse ear model of inflammation - erythema inhibition. The following applies: topical, 24 hours. The method, then:
The protocol for measuring erythema inhibition by provided complexes was developed in-house by utilizing the CR-400 chroma meter from Konica Minolta (2). This instrument was used to measure the Δa*redness value from 6 mm biopsy punches taken 24 hours post TPA/compound treatment as described in the edema inhibition section above. […] These values were corrected for the Δa* value of non TPA-treated mouse ears of littermate controls.

The test system of data set [2] is TPA-treated mouse ears (edema, ear thickness). Put plainly: TPA mouse ear model of inflammation - edema inhibition. The following applies: topical, 24 hours.
For data set [3], the system named is MPO activity (neutrophil infiltration) in P. acnes-injected ear. Put plainly: P. acnes-induced mouse ear model of inflammation - MPO endpoint. The following applies: dose of 0.4 mg/20 μL. The protocol: The methods for a model of P. acnes-inflammation are described elsewhere (Nakatsuji et al., J Invest Dermatol, 2008, 128: 2451-2457).
The protocol for inducing inflammation using P. acnes bacterial challenge on the mouse ear was slightly modified from the method described previously (Natatsuji et al., 2008). Briefly, Swiss Webster (ICR, 6-8 weeks old) mouse ears were injected with living P. acnes culture intradermally. An amount of 20 μl aliquots of living P. acnes (ATCC 6919, 3×10^6 CFU) suspended in PBS was intradermally injected in the central portion of the ear. As a control, 20 μl of PBS was injected into control animals.
To assay for inhibition of dermal neutrophil infiltration by AFC complexes, a standard method was used (see Bradley et al., J Invest Dermatol, 1982,78: 206-209; Young et al., J Invest Dermatol, 1983, 80: 48-52; De Young et al, Agents Actions, 1989, 26: 335-41; and Rao et al., Inflammation, 1993, 17: 723-41). Briefly, 6mm biopsy punches taken from both compound-treated ears as well as non-treated control ears were homogenized in 400 μl of 0.5% hexadecyltrimethylammonium bromide in 50 mM potassium phosphate buffer (pH 6.0) using the Fast Prep 24 (MP Biomedicals, Solon, Ohio). Supernatants were assayed for MPO activity using a model EL 340 96-well plate reader (BioTek Instruments, Winooski, Vt.). The percent inhibition of neutrophil infiltration by each AFC complex was determined by comparing the average MPO levels in the presence and absence of these compounds. The percent inhibition of MPO was determined by taking the average MPO activity of compound-treated ears and dividing it by the average MPO activity of 12 ears that only received the P. acnes challenge and subtracting that value from 100%. These values were corrected for the MPO activity of normal, non P. acnes-treated mouse ears of littermate controls. Summary of MPO activity ranges determined from an MPO activity assay for dexamethasone (administered at a dose of 1.6 mg/20 μL), clobetasol (administered at a dose of 0.1 mg/20 μL), salicylic acid (administered at a dose of 0.4 mg/20 μL), AFC (administered at a dose of 0.4 mg/20 μL), AFC-Strontium complex (administered at a dose of 0.4 mg/20 μL) and SFC-disodium are presented in Table 4. “+” indicates a range of 0-20%, “++” indicates a range of 20-40%, and “+++” indicates >40% inhibition.

Data set [4] concerns TPA-treated mouse ears (edema, ear thickness). Put plainly: TPA mouse ear model of inflammation - edema inhibition. The following applies: TPA-treated mouse ear. The method, then: In brief, mice were sedated and their ears were treated with 1.2 μg/20 uL TPA (i.e., tetradecanoylphorbol-13-acetate). After 5 minutes, we dosed these TPA-treated ears with a single 8 μg/20 μL dose, a 2 μg/20 μL dose, or both doses, of provided complexes. After 24 hours, the mice were sacrificed and edema was measured by taking micrometer readings of each ear. […] These values were corrected for the thickness of normal, non TPA-treated mouse ears of littermate controls.

Data set [5] deals with mouse skin reepithelialization. Put plainly: Mouse wound healing model - skin reepithelialization. From the text: The healing of wounded skin is mediated by epidermal reepithelialization that requires keratinocyte migration. Glucocorticoids are known to inhibit wound healing (Ehrlich et al., Proc Soc Exp Biol Med, 1971, 137: 936-938; Leibovich et al., Am J Pathol, 1975, 78, 71-100). […] The methods for studying mouse skin reepithelialization using both partial and full thickness mouse wound healing models have been described elsewhere (Kim et al. Wound Repair Regen, 2001, 9: 386-390). In brief, for partial thickness wounds, a 3 mm-diameter circle of epidermis is removed from the ventral auricle. The resulting wound is cleansed and dressed with an occlusive polyurethane film. The mouse ears are excised on days 3, 5, 8, and 11 post-operation and fixed in 10% buffered formalin. Following day 8 post-operation, sampling of treated mice is performed to determine completion of healing. For full thickness wounds, mice heads are shaved and depilated prior to excising the skin. The cleaned and dressed wounds are harvested and fixed at days 3, 5, 8 and 10 and fixed in 10% buffered formalin.

The subject of data set [6] is MPO (myeloperoxidase), neutrophil marker. Put plainly: TPA mouse ear model of inflammation - MPO inhibition (dermal neutrophil infiltration). The following applies: TPA-treated mouse ear. The method, then:
Briefly, we homogenized 6mm biopsy punches taken from both compound-treated ears as well as TPA-treated and non-treated control groups. We quantitated the levels of MPO by a colorimetric reaction that was measured spectrophotometrically. The percent inhibition of neutrophil infiltration by each complex was determined by comparing the average MPO levels in the presence and absence of these compounds. The calculation for percent inhibition of MPO was determined similar to that as described for calculating the percent edema inhibition, see the Edema Inhibition protocol, supra.

Where [7] appears, read: at the dose tested, AFC oil n=1, data not shown.

Regarding `CC(=O)N[C@@H](CSC/C=C(\C)CC/C=C(\C)CCC=C(C)C)C(=O)O` [AFC, N-acetyl-S-farnesyl-L-cysteine, reference compound], the “% Erythema Inhibition in the Mouse Ear Inflammation Assay (4% concentration)” value in data set [1] was “++ (“++” indicates a range of 20-40%)”. The “% Edema Inhibition in the Mouse Ear Inflammation Assay (4% concentration)” value in data set [2] is “+++ (“+++” indicates >50% inhibition of edema)”. Moreover, the “MPO % Inhibition” value in data set [3] is “+++ (“+++” indicates >40% inhibition)”. Besides, the inhibition of edema in data set [4] (setting [7]) was found to be 56.35%. Besides, the “ED50 for edema inhibition” value in data set [4] (topical, listed as AFC oil) is recorded as 54.8 mM. Further, the “effect on mouse skin reepithelialization of wounds” value in data set [5] is given as “no effects”. Further, the “inhibition of neutrophil infiltration” value in data set [6] (setting [7]) was 55.90%. Also, the “ED50 in the MPO assay” value in data set [6] (several concentrations, inhibitory activity curves) amounted to 651 μg/ear. The “% MPO Inhibition in the Mouse Ear Inflammation Assay (4% concentration)” value in data set [6] (topical, 4% concentration, 24 hours) was “++ (“++” indicates a range of 40-80%)”. The “ED50 value for inhibiting neutrophil infiltration” value in data set [6] (topical, listed as AFC oil) came out at 38.8 mM.
